# From PubChem BioAssay AID1963831 (Molecular Pharmacology Branch, DTP, NCI, 2024)
# System: 889142-216-R-J1-PDC complex spheroid viability
# Experiment: Anticancer human tumor 889142-216-R-J1-PDC patient-derived bladder carcinoma cell line growth inhibition [POLQ]
# Details: for IC50: curve of first compound; for viability, T/C: stronger effect = lower value
# Summary of the method: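 Growth inhibition in 3D: complex spheroids (tumor PDC, HUVEC, MSC) treated with POLQ inhibitor combinations; where Cmax unknown, highest tested concentration 10 microM, except SN-38 at 1 microM.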
# [1] = second compound 0.0316 µM, first compound 0.0316 µM
# [2] = second compound 0.0316 µM, first compound 0.1 µM
# [3] = second compound 0.0316 µM, first compound 0.316 µM
# [4] = second compound 0.0316 µM, first compound 1 µM
# [5] = second compound 0.0316 µM, first compound 3.16 µM
# [6] = second compound 0.0316 µM, first compound 10 µM
# [7] = second compound 0.1 µM, first compound 0.0316 µM
# [8] = second compound 0.1 µM, first compound 0.1 µM
# [9] = second compound 0.1 µM, first compound 0.316 µM
# [10] = second compound 0.1 µM, first compound 1 µM
# [11] = second compound 0.1 µM, first compound 3.16 µM
# [12] = second compound 0.1 µM, first compound 10 µM
# [13] = second compound 0.316 µM, first compound 0.0316 µM
# [14] = second compound 0.316 µM, first compound 0.1 µM
# [15] = second compound 0.316 µM, first compound 0.316 µM
# [16] = second compound 0.316 µM, first compound 1 µM
# [17] = second compound 0.316 µM, first compound 3.16 µM
# [18] = second compound 0.316 µM, first compound 10 µM
# [19] = second compound 1 µM, first compound 0.0316 µM
# [20] = second compound 1 µM, first compound 0.1 µM
# [21] = second compound 1 µM, first compound 0.316 µM
# [22] = second compound 1 µM, first compound 1 µM
# [23] = second compound 1 µM, first compound 3.16 µM
# [24] = second compound 1 µM, first compound 10 µM
# [25] = second compound 3.16 µM, first compound 0.0316 µM
# [26] = second compound 3.16 µM, first compound 0.1 µM
# [27] = second compound 3.16 µM, first compound 0.316 µM
# [28] = second compound 3.16 µM, first compound 1 µM
# [29] = second compound 3.16 µM, first compound 3.16 µM
# [30] = second compound 3.16 µM, first compound 10 µM
# [31] = second compound 10 µM, first compound 0.0316 µM
# [32] = second compound 10 µM, first compound 0.1 µM
# [33] = second compound 10 µM, first compound 0.316 µM
# [34] = second compound 10 µM, first compound 1 µM
# [35] = second compound 10 µM, first compound 3.16 µM
# [36] = second compound 10 µM, first compound 10 µM
# 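Note: spheroids exposed to compounds for seven days.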
# 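Throughout, for viability, T/C: 100% = DMSO vehicle control viability.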
smiles,measurement,setting,value
CNCc1ccc(-c2[nH]c3cc(F)cc4c3c2CCNC4=O)cc1 + COC1C(OC(N)=O)C(O)C(Oc2ccc3c(O)c(NC(=O)c4ccc(O)c(CC=C(C)C)c4)c(=O)oc3c2C)OC1(C)C,IC50,second compound 0.0316 µM,> 10 µM
same,IC50,second compound 0.1 µM,> 10 µM
same,IC50,second compound 0.316 µM,> 10 µM
same,IC50,second compound 1 µM,> 10 µM
same,IC50,second compound 3.16 µM,> 10 µM
same,IC50,second compound 10 µM,> 10 µM
same,"viability, T/C",[1],120%
same,"viability, T/C",[2],97.3%
same,"viability, T/C",[3],100%
same,"viability, T/C",[4],105%
same,"viability, T/C",[5],97.2%
same,"viability, T/C",[6],79.5%
same,"viability, T/C",[7],109%
same,"viability, T/C",[8],107%
same,"viability, T/C",[9],96.4%
same,"viability, T/C",[10],93.2%
same,"viability, T/C",[11],98.1%
same,"viability, T/C",[12],85.4%
same,"viability, T/C",[13],103%
same,"viability, T/C",[14],98.6%
same,"viability, T/C",[15],90.6%
same,"viability, T/C",[16],122%
same,"viability, T/C",[17],97.6%
same,"viability, T/C",[18],58.2%
same,"viability, T/C",[19],96.8%
same,"viability, T/C",[20],92.6%
same,"viability, T/C",[21],103%
same,"viability, T/C",[22],94.3%
same,"viability, T/C",[23],82.6%
same,"viability, T/C",[24],84.2%
same,"viability, T/C",[25],89.2%
same,"viability, T/C",[26],106%
same,"viability, T/C",[27],92%
same,"viability, T/C",[28],83.9%
same,"viability, T/C",[29],93.2%
same,"viability, T/C",[30],89.3%
same,"viability, T/C",[31],115%
same,"viability, T/C",[32],98.2%
same,"viability, T/C",[33],88.5%
same,"viability, T/C",[34],83.4%
same,"viability, T/C",[35],104%
same,"viability, T/C",[36],84%
COc1cc2cc(C(=O)CCC(=O)O)sc2cc1OC + Nc1ccc(C#CCN(C(=O)Cc2ncc(C(F)(F)F)cc2C(F)(F)F)c2ccc(F)cc2)nn1,IC50,second compound 0.0316 µM,> 10 µM
same,IC50,second compound 0.1 µM,> 10 µM
same,IC50,second compound 0.316 µM,> 10 µM
same,IC50,second compound 1 µM,> 10 µM
same,IC50,second compound 3.16 µM,> 10 µM
same,IC50,second compound 10 µM,> 10 µM
same,"viability, T/C",[1],88.3%
same,"viability, T/C",[2],108%
same,"viability, T/C",[3],96.6%
same,"viability, T/C",[4],92.9%
same,"viability, T/C",[5],108%
same,"viability, T/C",[6],61.9%
same,"viability, T/C",[7],108%
same,"viability, T/C",[8],89%
same,"viability, T/C",[9],82.7%
same,"viability, T/C",[10],115%
same,"viability, T/C",[11],81.9%
same,"viability, T/C",[12],79.2%
same,"viability, T/C",[13],91.7%
same,"viability, T/C",[14],86.5%
same,"viability, T/C",[15],94%
same,"viability, T/C",[16],117%
same,"viability, T/C",[17],78.2%
same,"viability, T/C",[18],78.5%
same,"viability, T/C",[19],82.5%
same,"viability, T/C",[20],96.3%
same,"viability, T/C",[21],93%
same,"viability, T/C",[22],89.5%
same,"viability, T/C",[23],93.3%
same,"viability, T/C",[24],68.2%
same,"viability, T/C",[25],108%
same,"viability, T/C",[26],83.6%
same,"viability, T/C",[27],91.1%
same,"viability, T/C",[28],71.7%
same,"viability, T/C",[29],87.2%
same,"viability, T/C",[30],76.8%
same,"viability, T/C",[31],90.5%
same,"viability, T/C",[32],79%
same,"viability, T/C",[33],93.7%
same,"viability, T/C",[34],101%
same,"viability, T/C",[35],100%
same,"viability, T/C",[36],89.4%
CCc1cc2c(N3CCc4c(cc(Cn5ccnc5)cc4-c4cn(C)nc4C(F)(F)F)C3=O)cc(C)nc2c(OC)n1 + Cc1cccc(N(C)C(=O)C2C(O)CCN2c2nc(C)cc(C(F)(F)F)c2C#N)c1,IC50,second compound 0.0316 µM,> 10 µM
same,IC50,second compound 0.1 µM,> 10 µM
same,IC50,second compound 0.316 µM,> 10 µM
same,IC50,second compound 1 µM,> 10 µM
same,IC50,second compound 3.16 µM,> 10 µM
same,IC50,second compound 10 µM,> 10 µM
same,"viability, T/C",[1],109%
same,"viability, T/C",[2],132%
same,"viability, T/C",[3],121%
same,"viability, T/C",[4],108%
same,"viability, T/C",[5],91.3%
same,"viability, T/C",[6],80.8%
same,"viability, T/C",[7],119%
same,"viability, T/C",[8],98.8%
same,"viability, T/C",[9],105%
same,"viability, T/C",[10],114%
same,"viability, T/C",[11],109%
same,"viability, T/C",[12],96.8%
same,"viability, T/C",[13],113%
same,"viability, T/C",[14],111%
same,"viability, T/C",[15],137%
same,"viability, T/C",[16],137%
same,"viability, T/C",[17],130%
same,"viability, T/C",[18],83.9%
same,"viability, T/C",[19],91%
same,"viability, T/C",[20],106%
same,"viability, T/C",[21],143%
same,"viability, T/C",[22],112%
same,"viability, T/C",[23],94.7%
same,"viability, T/C",[24],84.3%
same,"viability, T/C",[25],104%
same,"viability, T/C",[26],121%
same,"viability, T/C",[27],114%
same,"viability, T/C",[28],94.9%
same,"viability, T/C",[29],112%
same,"viability, T/C",[30],69.9%
same,"viability, T/C",[31],89.2%
same,"viability, T/C",[32],88.3%
same,"viability, T/C",[33],109%
same,"viability, T/C",[34],144%
same,"viability, T/C",[35],83.7%
same,"viability, T/C",[36],70.8%
